The NIST ThermoML archive (doi:10.1021/je3013414)
± gives the expanded uncertainty stated by the source.

Columns and labels:
[1] = refractive index (Na D-line) (dimensionless); conditions: 298.15 K; 101.33 kPa; Liquid; Standard Abbe refractometry
[2] = 101.33 kPa, Liquid, Vibrating tube method

| SMILES | refractive index [1] | mass density ([2]; 303.15 K) | mass density ([2]; 313.15 K) | mass density ([2]; 323.15 K) | mass density ([2]; 333.15 K) | mass density ([2]; 343.15 K) | mass density ([2]; 353.15 K) | mass density ([2]; 363.15 K) |
| --- | --- | --- | --- | --- | --- | --- | --- | --- |
| CCCCn1cc[n+](C)c1.F[P-](F)(F)(F)(F)F [1-butyl-3-methylimidazolium hexafluorophosphate] | 1.4106 ± 0.0005 | 1361.3 ± 1.7 kg/m3 | 1353 ± 1.6 kg/m3 | 1344.8 ± 1.6 kg/m3 | 1336.7 ± 1.6 kg/m3 | 1328.5 ± 1.6 kg/m3 | 1320.5 ± 1.6 kg/m3 | 1312.4 ± 1.5 kg/m3 |
| CCOS(=O)(=O)[O-].CCn1cc[n+](C)c1 [1-ethyl-3-methylimidazolium ethyl sulfate] | 1.4106 ± 0.0005 | 1233.7 ± 1.4 kg/m3 | 1226.9 ± 1.3 kg/m3 | 1220.2 ± 1.3 kg/m3 | 1213.6 ± 1.3 kg/m3 | 1207 ± 1.3 kg/m3 | 1200.4 ± 1.3 kg/m3 | 1193.9 ± 1.3 kg/m3 |
